As usually defined, the IC50 is the concentration needed to halve the response being measured.

Series [1] concerns human AML cell lines (U937, THP-1, NOMO-1, SKM-1, NB4, and OCI-AML3). The series is described as follows: AML cell line screen (CellTiter-Glo). It is filed as cell-based. As for the experimental part:
Nomo-1, THP-1, SKM-1, NB4, and U937 cell lines were grown in RPMI (12-702F, BioWhittaker), 10% FBS (10082-147, Gibco), and 1% Pen-Strep (15140-122, Gibco) and OCI-AML3 was grown in α-MEM (36453, Stem Cell Technologies), 10% FBS (10082-147, Gibco), and 1% Pen-Strep (15140-122, Gibco). 3000 cells were plated in each well in 30 μl in white, 384 well plates (3570, Corning) and 16 hours later 100 nl of the appropriate compound was added to each well. 72 hours later the plates were cooled to room temperature and 30 μl of CellTiterGlo reagent (G7570, Promega) diluted 1:1 in PBS was added to each well and the plates were analyzed using an Envision (Perkin Elmer).
First, a traditional small molecule screen was performed on six human AML cell lines (U937, THP-1, NOMO-1, SKM-1, NB4, and OCI-AML3), two of which (NOMO-1, THP-1) contain the same oncogene (MLL-AF9) used to generate the primary leukemia cells utilized in our coculture system. The cell lines were grown in isolation under standard conditions, treated with the 160 compounds at 8-point dose, and three days later the viability of each well was quantified using CellTiter-Glo reagent. The IC50s from these AML cell line screens were then compared to the IC50s from the coculture screens. […] As discussed, the existence of such differentially-active compounds is consistent with our hypothesis that coculturing can expand the pool of therapeutically promising compounds identified in high throughput format.

The subject of another series is normal murine HSPCs. Kind of series: Triple coculture (LSCs and HSPCs on primary MSCs), normal HSPCs. As to conditions: for IC50: Mus musculus, read-out: Normal HSPC* IC50.
A further series concerns dsRed+ LSCs. Kind of series: Syngeneic transplantation of compound-treated triple cocultures, leukemia onset / survival. It is filed as in vivo, mice. As to conditions: cocultures treated 48 hours ex vivo, then transplanted; vs DMSO. As for the experimental part: Heterotypic cocultures containing dsRed+ LSCs, CD45.1+ HSPCs, and GFP+ MSCs were exposed to compounds for 48 hours, then transplanted en masse post trypsinization with untreated wild-type helper splenocytes (CD45.1+CD45.2+) into lethally irradiated, wildtype recipient animals (CD45.2+). Latency of leukemia onset was compared for mice receiving cocultures treated with compound compared to DMSO control treated cocultures. The engraftment of the normal HSPCs treated and injected along with the leukemia cells was quantified by FACs analysis of the bone marrow of mice alive at the 16 week endpoint across treatments.
As in vivo readouts may better reflect hematopoietic stem cell function compared to in vitro readouts (Purton, L. E., and Scadden, D. T. (2007). Cell Stem Cell 1, 263-270.; Bock, T. A. (1997). Stem Cells 15 Suppl 1, 185-195.), our results were confirmed using murine transplantation studies. […] Compounds that increase disease latency relative to DMSO control are considered active. […] Bone marrow repopulating ability is a functional measure of normal HSPCs, assessed by quantifying long-term engraftment and differentiation patterns in recipient mice (Bock, T. A. (1997). Stem Cells 15 Suppl 1, 185-195.; Nguyen, L. V., Vanner, R., Dirks, P., and Eaves, C. J. (2012). Nat Rev Cancer 12, 133-143.). […]

For series [2], the system named is normal primary human CD34+ cells. Kind of series: Alamar Blue assay for human progenitor cell toxicity. The settings on record: for IC50: Homo sapiens, 168 h, read-out: Normal Progenitor* IC50. As for the experimental part: Normal G-CSF mobilized CD34+ cells (AllCells, LLC, Emeryville, Calif.), normal BM CD34 cells (MSKCC, New York, N.Y.) and cord blood CD34+ cells (New York Blood Center, New York) were previously frozen and thawed out before the proliferation assay was set up in 384-well plates. Briefly, 50 μl of IMDM medium containing 20% FBS (Gemini Bio-Product, West Sacramento, Calif.), 20 ng/ml of recombinant human Kit Ligand (rhKL), 20 ng/ml of rh-Interleukin-3 (rhIL-3), 20 ng/ml of rhG-CSF, 6 units/ml of rhEPO, 10-42-mercaptoethanol, 2 mM glutamine, 50 u/ml penicillin, 50 μg/ml streptomycin, 1,000 viable CD34+ cells in the presence of various doses of Broad compounds (drug-treated group) or 0.1% DMSO (control group) were incubated at 37° C. After 6 days, 5 μl of AlamaBlue (AbD Serotec, Raleigh, N.C.) was added to each well and further incubated overnight. The fluorescence signal was then measured with GeminiXS microplate reader (Molecular Devices, Sunnyvale, Calif.). Effect of small molecules to proliferation of CD34+ cells was reported as Relative fluorescent intensity (Relative Fluorescent Intensity=Fluorescent Intensity (drug-treated)/Fluorescent Intensity (Control).
Finally, experiments were performed to examine whether BRD7116 or lovastatic acid were likely to cause myelosuppression, a type of deleterious toxicity in patients resulting from harm to normal human hematopoietic progenitor cells. This consideration is especially important as conventional therapies currently used in the clinic have myelosuppressive toxicities that are dose-limiting. To this end, a hematopoietic progenitor assay was employed to compare the effects of BRD7116 and lovastatic acid to effects given by such known myelosuppressive compounds. In this assay, normal primary human CD34^+ cord blood cells were plated with cytokines in suspension, treated with compound for 7 days, and then examined for viability relative to DMSO treated controls.
(In general: The colour change of resazurin is a common sign of viable cells or microbes.)

Description for normal murine HSPCs: As in the original assay approach, treatment of these triple cocultures began one day after hematopoietic cell plating and was assessed 5 days later.
An in vitro therapeutic index was determined for each compound, a comparative measure of the potential for anti-LSC efficacy relative to the potential for dose-limiting toxicities to normal HSCs (myeloablation), or to normal progenitors (myelosuppression). Specifically, ratios were created using the IC50s for primary murine HSPCs in triple coculture as the numerator, and the IC50s for primary murine leukemia inhibition in triple coculture as the denominator, toward assessing the potential for HSC harm relative to LSC inhibition.

For the compound `CCC(C)C(=O)OC1CC(C)C=C2C=CC(C)C(CCC(O)CC(O)CC(=O)O)C21` (stereo not shown) [Lovastatic acid], the “activity against AML cell lines” value in series [1] is listed as “only weak activity”. Besides, the IC50 in series [1] (Homo sapiens, read-out: IC50 across the AML cell lines) is more than 10 µM; in the series on normal murine HSPCs it was 0.8 µM; in series [2], 10 µM. In addition, in the series with normal murine HSPCs (200 nM lovastatic acid or 1 μM BRD7116, 5 days), the “normal HSPCs in triple coculture” value was “continued to display healthy, cobblestoned morphologies”. In addition, in the series with dsRed+ LSCs, the “latency of leukemia onset / survival of recipient mice” value was “survived substantially longer than the DMSO control group”. The “toxicity to hematopoietic progenitor cells” value in series [2] was “minimal toxicity”.
`CC1(C)C(C(=O)Nc2ccc(S(=O)(=O)c3ccc(NC(=O)C4C(C)(C)C4(C)C)cc3)cc2)C1(C)C` [BRD7116]: the “inhibition of AML cell lines at maximal doses” value in series [1] (of the positive control) is listed as 50%. Also, in series [1] (relative to DMSO control, concentrations greater than 30 μM), the “inhibition of AML cell lines” value is listed as “roughly 50%”. For the same compound, the IC50 with normal murine HSPCs is 5 µM. Further, the “latency of leukemia onset / survival of recipient mice” value in the series with dsRed+ LSCs is “mild, but statistically significant prolonged latency of leukemia onset”. Also, in series [2], the “toxicity to hematopoietic progenitor cells” value is “minimal toxicity” and the IC50 was determined as 10 µM.

These data come from patent US20130338092A1, “COMPOUNDS AND METHODS FOR TARGETING LEUKEMIC STEM CELLS” (The Broad Institute, Inc., priority 2011, published 2013).
